Read-outs that look alike come from different tables or passages of the source.
What was measured:
HIV-1NL4-3 = assay: HIV-1 infectivity in TZM-bl cells (F-Luc); type: cell-based; conditions: for EC50: Human immunodeficiency virus 1, TZM-bl, 48 h, TZM-bl cells infected with HIV-1NL4-3 at MOI 1, 48 h, F-Luc, mean ± SD; for SI (CC50/EC50) / inhibitory effect on HIV-1 infection (in words): TZM-bl cells; for inhibitory effect on HIV-1 infection (in words): HIV-1NL4-3
Procedure: (§3) The TZM-bl cells (also referred to as JC53BL-13) expressing human CD4, CXCR4, and CCR5 carrying the F-Luc and lacZ genes downstream of the HIV-1 LTR promoter ([60]) were used to determine the inhibitory effect of the compounds on HIV-1 infection, as previously described ([11], [12], [61]). In brief, 1 × 10^4 cells were cultured in 96-well plates for 24 h and subsequently treated with compounds at the indicated concentrations. Without replacement of the culture medium, the cells were subsequently infected with the HIV-1NL4-3 wild-type or ARV-resistant HIV-1 strains at an MOI of 1 to determine the exact inhibitory effect of compounds on a single-round infection. After 48 h, the inhibitory effect of the compounds was determined using a Bright Glo luciferase assay kit (Promega) or β-Galactosidase Enzyme Assay kit (Promega). The infectivity data were presented as a percentage relative to the dimethyl sulfoxide (DMSO) control (vehicle). Cell viability was determined using the resazurin-based PrestoBlue Cell Viability Reagent (Thermo Fisher Scientific, Waltham, MA, USA) following the manufacturer’s instructions.

[1] = system: Tat-mediated LTR transcription; assay: Dual-reporter assay, F-Luc (Tat-mediated LTR transcription) in bl-DTR cells; type: cell-based, HIV-1; conditions: for IC50: Human immunodeficiency virus 1, 24 h, read-out: IC50 of F-Luc (Tat); for inhibitory effect on Tat (in words): F-Luc
Procedure: (§1) Fig 1 (A) (Top panel) Schematic representation of the primary compound screening using a dual-reporter system. […] (B). […] (Top graphs) bl-DTR cells (1 × 10^4) were treated with twofold serial dilutions of each compound before doxycycline (Dox) addition (final concentration, 50 ng/mL). After 24 h of treatment, the activities of firefly luciferase (F-Luc, red line) and Renilla luciferase (R-Luc, blue line) were determined using the Dual-Glo Luciferase assay system. (Bottom graphs) TZM-bl cells were treated with each indicated compound and subsequently infected with the HIV-1NL4-3 strain at a multiplicity of infection (MOI) of 1. At 48 h after infection, the viral infectivity (purple line) and cell viability (green line) were determined using the Bright-Glo luciferase assay kit and the PrestoBlue Cell Viability Reagent, respectively. […] (C). […] The targeted moieties for the SAR study are marked with dotted-circle lines.
(§2) The Tzm-bl-derived dual Tat reporter; TZM-bl/Tat/Rluc (bl-DTR) cells were established from TZM-bl cells using two Dox-inducible lentiviral expression cassettes cloned with Flag-tagged Tat86 and the R-Luc gene, as described in our previous study ([11]). TZM-bl, A3.01, J1.1, and J-Lat 6.3 cells as well as the HIV-1 molecular clone pNL4-3, pNL(AD8), ARV-resistant HIV-1 strains, and HIV-1NL43-IRES-eGFP (pBR43IeG-nef^+, gifted by Dr. Frank Kirchhoff) ([52]) were provided by the National Institute of Health HIV Reagent Program (NIH, Bethesda, MD, USA). HeLa (CCL-2) and 293T (CRL-3216) cell lines were purchased from the American Type Culture Collection (ATCC, Manassas, VA, USA). The bl-DTR, TZM-bl, HeLa, and 293T cells were cultured in Dulbecco’s modified Eagle’s medium supplemented with 1% penicillin–streptomycin and 10% (vol/vol) heat-inactivated fetal bovine serum (all from Gibco-BRL, Gaithersburg, MD, USA), and 1 µg/mL of puromycin and 200 µg/mL of zeocin were additionally supplemented for the bl-DTR cells. PBMCs were purchased from AllCells (Alameda, CA, USA) and cultured as previously described ([12]). The information on ARV-resistant HIV-1 strains was described in previous reports as follows: NNRTI-resistant 12241 and 12243 ([53]); NRTI-resistant 7396, 7406, and 7407 ([54]); INSTI-resistant 11847 and 11849 ([55], [56]); and PI-resistant 11800 and 11803 ([57]). Each molecular HIV-1 clone was transfected to 293T cells, as previously described ([58]), to obtain infectious HIV-1 particles. Virus-containing cell culture supernatants were collected 3 days after transfection, and filtered through a 0.45-µm membrane filter (Millipore Sigma, Burlington, MA, USA) to remove cell debris. The viral titration was performed as described previously ([59]) with some minor modifications. In brief, 1 × 10^4 TZM-bl cells seeded in 96-well plates were infected with 200 µL of virus-containing medium diluted serially twofold. The incubation was for 2 days and the experiment was performed in triplicate; the infection time minimized the virus spread ([59]). The titration of the infectious viral particles was performed with a ß-Gal staining assay using the ßeta-Galactosidase Staining Kit (Mirus Bio, Madison, WI, USA) following the manufacturer’s protocols. In brief, the infected cells were washed with phosphate-buffered saline (PBS) and fixed using a Cell Fixative Working solution. The cells were washed with PBS and stained using the Cell Staining Working Solution containing X-gal. The infected blue-colored cells were counted under a microscope (100× magnification). The infectious virus titer was determined as a mean value of blue-colored cells count × dilution factor and used for determining the multiplicity of infection (MOI) in each infection experiment.

[2] = Cell viability of TZM-bl cells (PrestoBlue); type: cell-based; conditions: human
Procedure: as §3

[3] = system: general cellular transcription/translation (R-Luc); assay: Dual-reporter assay, R-Luc in bl-DTR cells; type: cell-based; conditions: doxycycline, 24 h
Procedure: as §1, §2

[4] = system: HIV-1NL4-3 IRES-eGFP-nef+; assay: eGFP-encoding HIV-1 infection of TZM-bl cells; type: cell-based; conditions: 9, 10, 13 1.5 μM, 20, 21, 22 4 μM, seliciclib 10 µM, triptolide 5 nM, DTG 2 nM, EFV 2 nM, 2 days
Procedure: Fig 4 (A) Comparison of the chemical structures between prominent derivatives (9, 10, and 13) and non-functional derivatives (20, 21 and 22). (B) bl-DTR cells were treated with serial dilutions of each compound upon Dox for 24 h. The activities of F-Luc and R-Luc were determined using the Dual-Glo -Luciferase assay system. (C) TZM-bl cells were infected with the HIV-1NL4-3 strain at an MOI of 1 upon treatment of compounds. At 48 h after infection, the viral infectivity and cell viability were determined as described above (Fig. 1). (D) TZM-bl cells were infected with HIV-1NL4-3 IRES-eGFP virus along with the compound treatment. Two days later, GFP-expressing cells were observed by fluorescence microscopy (100× magnification). […] At 48 h after infection, the β-gal activity indicating viral infectivity was determined using the β-gal Enzyme Assay kit. F-Luc activity and cell viability were determined as described above (Fig. 4C). (C and E) The dose-response curves show the relative activity compared with that of the DMSO vehicle (mean ± SD; n = 3).

Compound | EC50 (HIV-1NL4-3; read-out: EC50) | SI (CC50/EC50) (HIV-1NL4-3) | IC50 [1] | CC50 at 48 h [2] | Relative R-Luc activity at IC50 of F-Luc [3] | inhibitory effect on Tat (in words) ([1]; bl-DTR cells) | inhibitory effect on HIV-1 infection (in words) (HIV-1NL4-3) | also measured
Cc1[nH]c2ccc(-c3nnc(SCCC(=O)O)o3)cc2c1C [Compound B, 3-((5-(2,3-Dimethyl-1H-indol-5-yl)-1,3,4-oxadiazol-2-yl)thio)propanoic acid] | 2.63 ± 0.34 µM | 16.97 | 2.29 ± 0.08 µM | 44.6 ± 5.68 µM | >100 | – | – | –
Cc1[nH]c2ccc(-c3nnc(SCCN4CCCCC4)o3)cc2c1C [Compound 24, 2-(2,3-Dimethyl-1H-indol-5-yl)-5-((2-(piperidin-1-yl)ethyl)thio)-1,3,4-oxadiazole] | 3.02 ± 0.09 µM | 13.34 | 1.97 ± 0.03 µM | 40.3 ± 1.74 µM | >100 | modest inhibitory effect | – | –
Cc1[nH]c2ccc(-c3nnc(SC(C)(C)C(=O)N4CCCCC4)o3)cc2c1C [Compound 12, 2-((5-(2,3-Dimethyl-1H-indol-5-yl)-1,3,4-oxadiazol-2-yl)thio)-2-methyl-1-(piperidin-1-yl)propan-1-one] | – | – | – | – | – | increased | increased | –
CC(=O)O[C@@]12C[C@@H](C)[C@@]3(O)[C@@H](C=C(CO)C[C@]4(O)C(=O)C(C)=C[C@@H]34)[C@@H]1C2(C)C [prostratin, reference compound] | – | – | – | – | – | – | – | LTR activity increase induced by adding prostratin ([1]; bl-DTR cells, Dox, sustained in the presence of compounds 9 or 13): ~ 1.5 fold
O=C(O)CCSc1nnc(-c2cccc3ccccc23)o1 [Compound A, 3-((5-(Naphthalen-1-yl)-1,3,4-oxadiazol-2-yl)thio)propanoic acid] | – | – | 4 µM | – | – | – | – | EC50 (HIV-1NL4-3): 4.19 µM
Cc1[nH]c2ccc(-c3nnc(SCC(=O)N4CCCCC4)n3C)cc2c1C [Compound 28, 2-((5-(2,3-Dimethyl-1H-indol-5-yl)-4-methyl-4H-1,2,4-triazol-3-yl)thio)-1-(piperidin-1-yl)ethan-1-one] | 21.2 ± 1.47 µM | 1.74 | 13.7 ± 0.53 µM | 36.8 ± 12.6 µM | 90 | critical decrease of potency | critical decrease of potency | –
Cc1[nH]c2ccc(-c3nnc(S(=O)(=O)CC(=O)N4CCCC4)o3)cc2c1C [Compound 22, 2-((5-(2,3-Dimethyl-1H-indol-5-yl)-1,3,4-oxadiazol-2-yl)sulfonyl)-1-(pyrrolidin-1-yl)ethan-1-one] | – | – | – | – | – | – | – | inhibition of viral-expressed eGFP signal [4]: did not
Cc1[nH]c2ccc(-c3nnc(SC(C)C(=O)N4CCCCC4)n3CCc3ccccc3)cc2c1C (stereo not shown) [Compound 30, 2-((5-(2,3-Dimethyl-1H-indol-5-yl)-4-phenethyl-4H-1,2,4-triazol-3-yl)thio)-1-(piperidin-1-yl)propan-1-one] | 2.01 ± 0.11 µM | 11.26 | 1.74 ± 0.06 µM | 22.6 ± 0.47 µM | 100 | – | – | –
Cc1[nH]c2ccc(-c3nnc(SC(C)C(=O)N4CCCC4)o3)cc2c1C (stereo not shown) [Compound 14, 2-((5-(2,3-Dimethyl-1H-indol-5-yl)-1,3,4-oxadiazol-2-yl)thio)-1-(pyrrolidin-1-yl)propan-1-one] | 3.31 ± 0.28 µM | 17.44 | 3.82 ± 0.12 µM | 57.7 ± 6.01 µM | >100 | – | – | –
Cc1[nH]c2ccc(-c3nnc(SC(C)C(=O)N4CCCCC4)o3)cc2c1C (stereo not shown) [Compound 11, 2-((5-(2,3-Dimethyl-1H-indol-5-yl)-1,3,4-oxadiazol-2-yl)thio)-1-(piperidin-1-yl)propan-1-one] | 0.4 ± 0.05 µM | 67.85 | 0.43 ± 0.03 µM | 27.1 ± 1.95 µM | 100 | – | – | –
Cc1[nH]c2ccc(-c3nnc(SCC(=O)N4CCCC4)n3CCc3ccccc3)cc2c1C [Compound 31, 2-((5-(2,3-Dimethyl-1H-indol-5-yl)-4-phenethyl-4H-1,2,4-triazol-3-yl)thio)-1-(pyrrolidin-1-yl)ethan-1-one] | 5.89 ± 0.05 µM | 9.39 | 3.42 ± 0.12 µM | 55.3 ± 10.2 µM | >100 | – | – | –
Cc1[nH]c2ccc(-c3nnc(S)o3)cc2c1C [Compound 3b, 5-(2,3-Dimethyl-1H-indol-5-yl)-1,3,4-oxadiazole-2-thiol] | – | – | – | – | – | did not exhibit a substantial biological effect | did not exhibit a substantial biological effect | –
2-((5-(2,3-Dimethyl-1H-indol-5-yl)-1,3,4-oxadiazol-2-yl)thio)-1-(pyrrolidin-1-yl)propan-1-one [Compound 15] | – | – | – | – | – | increased | increased | –
Cc1[nH]c2ccc(-c3nnc(SCCN4CCCC4)o3)cc2c1C [Compound 25, 2-(2,3-Dimethyl-1H-indol-5-yl)-5-((2-(pyrrolidin-1-yl)ethyl)thio)-1,3,4-oxadiazole] | – | – | – | – | – | no effect was observed | no effect was observed | –
1-(Pyrrolidin-1-yl)-2-((5-(1,2,3-trimethyl-1H-indol-5-yl)-1,3,4-oxadiazol-2-yl)thio)ethan-1-one [Compound 19] | – | – | – | – | – | did not demonstrate any biological effect | did not demonstrate any biological effect | –

Reference: PMC11459959, “Discovery of new acetamide derivatives of 5-indole-1,3,4-oxadiazol-2-thiol as inhibitors of HIV-1 Tat-mediated viral transcription” (Antimicrobial Agents and Chemotherapy, 2024)
